Results published in the NIST ThermoML archive (doi:10.1021/je700140j).
± gives the expanded uncertainty stated by the source.

Test: xn = mol fraction of the nth substance listed
Conditions: for surface tension liquid-gas: Ring tensiometer; for mass density / viscosity: 100.8 kPa, Liquid

OCCc1ccccc1 [2-phenylethanol] + CC(C)O
Conditions | mass density, 298.15 K [kg/m3] | mass density, 308.15 K [kg/m3] | mass density, 318.15 K [kg/m3] | surface tension liquid-gas, 298.15 K [mN/m] | surface tension liquid-gas, 308.15 K [mN/m] | surface tension liquid-gas, 318.15 K [mN/m] | viscosity, 298.15 K [mPa·s] | viscosity, 308.15 K [mPa·s] | viscosity, 318.15 K [mPa·s]
x2 = 0 | 1016.2 ± 0.39 | 1008.63 ± 0.37 | 1000.98 ± 0.36 | 39.43 ± 0.58 | 38.93 ± 0.57 | 38.35 ± 0.56 | 11.4 ± 0.14 | 7.518 ± 0.098 | 5.232 ± 0.071
x2 = 0.05 | 1009.41 ± 0.36 | 1002.31 ± 0.35 | 994.22 ± 0.35 | 38.1 ± 0.56 | 37.7 ± 0.55 | 37.2 ± 0.55 | 10.66 ± 0.13 | 7.05 ± 0.092 | 4.953 ± 0.068
x2 = 0.1 | 1002.07 ± 0.34 | 994.92 ± 0.34 | 986.78 ± 0.35 | 36.9 ± 0.54 | 36.58 ± 0.54 | 36.13 ± 0.53 | 9.933 ± 0.13 | 6.594 ± 0.087 | 4.645 ± 0.064
x2 = 0.15 | 994.41 ± 0.33 | 986.76 ± 0.35 | 978.99 ± 0.36 | 35.8 ± 0.53 | 35.47 ± 0.52 | 35.05 ± 0.52 | 9.256 ± 0.12 | 6.148 ± 0.081 | 4.366 ± 0.059
x2 = 0.2 | 986.36 ± 0.34 | 978.65 ± 0.35 | 970.82 ± 0.37 | 34.7 ± 0.51 | 34.38 ± 0.51 | 33.97 ± 0.5 | 8.618 ± 0.11 | 5.726 ± 0.076 | 4.103 ± 0.056
x2 = 0.25 | 977.95 ± 0.35 | 970.19 ± 0.36 | 962.28 ± 0.37 | 33.63 ± 0.5 | 33.28 ± 0.49 | 32.88 ± 0.49 | 8 ± 0.1 | 5.341 ± 0.071 | 3.85 ± 0.052
x2 = 0.3 | 969.14 ± 0.35 | 961.31 ± 0.37 | 953.36 ± 0.38 | 32.61 ± 0.48 | 32.23 ± 0.48 | 31.8 ± 0.47 | 7.407 ± 0.095 | 4.969 ± 0.067 | 3.6 ± 0.049
x2 = 0.35 | 959.91 ± 0.36 | 952.04 ± 0.38 | 943.99 ± 0.39 | 31.6 ± 0.47 | 31.19 ± 0.46 | 30.75 ± 0.46 | 6.858 ± 0.088 | 4.621 ± 0.062 | 3.362 ± 0.046
x2 = 0.4 | 950.21 ± 0.37 | 942.3 ± 0.39 | 934.2 ± 0.4 | 30.6 ± 0.45 | 30.17 ± 0.45 | 29.7 ± 0.44 | 6.35 ± 0.082 | 4.286 ± 0.058 | 3.132 ± 0.042
x2 = 0.45 | 940.02 ± 0.39 | 932.05 ± 0.4 | 923.92 ± 0.42 | 29.6 ± 0.44 | 29.16 ± 0.43 | 28.68 ± 0.43 | 5.862 ± 0.076 | 3.964 ± 0.053 | 2.912 ± 0.04
x2 = 0.5 | 929.31 ± 0.4 | 921.29 ± 0.42 | 913.06 ± 0.44 | 28.62 ± 0.43 | 28.16 ± 0.42 | 27.68 ± 0.41 | 5.412 ± 0.071 | 3.67 ± 0.049 | 2.713 ± 0.037
x2 = 0.55 | 918.04 ± 0.42 | 909.98 ± 0.43 | 901.7 ± 0.45 | 27.65 ± 0.41 | 27.17 ± 0.41 | 26.68 ± 0.4 | 4.978 ± 0.066 | 3.389 ± 0.046 | 2.524 ± 0.034
x2 = 0.6 | 906.21 ± 0.43 | 898.08 ± 0.44 | 889.7 ± 0.46 | 26.7 ± 0.4 | 26.2 ± 0.39 | 25.7 ± 0.39 | 4.571 ± 0.061 | 3.124 ± 0.042 | 2.342 ± 0.032
x2 = 0.65 | 893.62 ± 0.44 | 885.47 ± 0.46 | 877.03 ± 0.48 | 25.8 ± 0.39 | 25.3 ± 0.38 | 24.83 ± 0.38 | 4.173 ± 0.055 | 2.876 ± 0.039 | 2.162 ± 0.029
x2 = 0.7 | 880.35 ± 0.46 | 872.12 ± 0.48 | 863.6 ± 0.49 | 24.98 ± 0.38 | 24.48 ± 0.37 | 24 ± 0.36 | 3.793 ± 0.05 | 2.634 ± 0.035 | 1.989 ± 0.027
x2 = 0.75 | 866.25 ± 0.48 | 857.98 ± 0.49 | 849.39 ± 0.51 | 24.2 ± 0.37 | 23.68 ± 0.36 | 23.2 ± 0.35 | 3.438 ± 0.046 | 2.407 ± 0.032 | 1.823 ± 0.025
x2 = 0.8 | 851.34 ± 0.5 | 842.99 ± 0.52 | 834.3 ± 0.53 | 23.45 ± 0.36 | 22.9 ± 0.35 | 22.45 ± 0.35 | 3.101 ± 0.041 | 2.201 ± 0.03 | 1.665 ± 0.023
x2 = 0.85 | 835.47 ± 0.52 | 827.04 ± 0.54 | 818.29 ± 0.56 | 22.75 ± 0.35 | 22.2 ± 0.34 | 21.7 ± 0.34 | 2.808 ± 0.037 | 2.009 ± 0.027 | 1.526 ± 0.021
x2 = 0.9 | 818.57 ± 0.55 | 810.09 ± 0.57 | 801.28 ± 0.58 | 22.1 ± 0.34 | 21.5 ± 0.33 | 20.97 ± 0.33 | 2.541 ± 0.034 | 1.859 ± 0.025 | 1.415 ± 0.019
x2 = 0.95 | 800.54 ± 0.58 | 792 ± 0.6 | 783.08 ± 0.61 | 21.5 ± 0.33 | 20.8 ± 0.32 | 20.18 ± 0.32 | 2.281 ± 0.031 | 1.693 ± 0.023 | 1.298 ± 0.018

OCCc1ccccc1 [2-phenylethanol] + OCc1ccccc1
Conditions | mass density, 298.15 K [kg/m3] | mass density, 308.15 K [kg/m3] | mass density, 318.15 K [kg/m3] | surface tension liquid-gas, 298.15 K [mN/m] | surface tension liquid-gas, 308.15 K [mN/m] | surface tension liquid-gas, 318.15 K [mN/m] | viscosity, 298.15 K [mPa·s] | viscosity, 308.15 K [mPa·s] | viscosity, 318.15 K [mPa·s]
x2 = 0 | 1016.2 ± 0.39 | 1008.63 ± 0.37 | 1000.98 ± 0.36 | 39.43 ± 0.58 | 38.93 ± 0.57 | 38.35 ± 0.56 | 11.4 ± 0.14 | 7.518 ± 0.098 | 5.232 ± 0.071
x2 = 0.05 | 1018.11 ± 0.39 | 1010.83 ± 0.37 | 1003.42 ± 0.35 | – | – | – | 11.07 ± 0.14 | 7.322 ± 0.095 | 5.116 ± 0.07
x2 = 0.1 | 1020.14 ± 0.38 | 1013.11 ± 0.36 | 1005.98 ± 0.35 | 39.2 ± 0.57 | 38.7 ± 0.57 | 38.11 ± 0.56 | 10.73 ± 0.14 | 7.132 ± 0.093 | 5 ± 0.068
x2 = 0.15 | 1022.33 ± 0.38 | 1015.32 ± 0.36 | 1008.23 ± 0.34 | – | – | – | 10.41 ± 0.13 | 6.94 ± 0.09 | 4.883 ± 0.066
x2 = 0.2 | 1024.45 ± 0.37 | 1017.42 ± 0.35 | 1010.36 ± 0.34 | 39 ± 0.57 | 38.48 ± 0.56 | 37.86 ± 0.55 | 10.08 ± 0.13 | 6.752 ± 0.088 | 4.77 ± 0.065
x2 = 0.25 | 1026.56 ± 0.37 | 1019.52 ± 0.35 | 1012.41 ± 0.33 | – | – | – | 9.759 ± 0.12 | 6.564 ± 0.085 | 4.655 ± 0.063
x2 = 0.3 | 1028.52 ± 0.36 | 1021.44 ± 0.35 | 1014.25 ± 0.33 | 38.83 ± 0.56 | 38.28 ± 0.55 | 37.63 ± 0.55 | 9.44 ± 0.12 | 6.372 ± 0.083 | 4.542 ± 0.061
x2 = 0.35 | 1030.34 ± 0.36 | 1023.25 ± 0.34 | 1015.99 ± 0.33 | – | – | – | 9.125 ± 0.11 | 6.186 ± 0.08 | 4.43 ± 0.06
x2 = 0.4 | 1032.11 ± 0.35 | 1024.95 ± 0.34 | 1017.65 ± 0.32 | 38.7 ± 0.56 | 38.1 ± 0.55 | 37.41 ± 0.54 | 8.816 ± 0.11 | 5.999 ± 0.078 | 4.32 ± 0.058
x2 = 0.45 | 1033.8 ± 0.35 | 1026.61 ± 0.33 | 1019.28 ± 0.32 | – | – | – | 8.506 ± 0.11 | 5.815 ± 0.076 | 4.21 ± 0.056
x2 = 0.5 | 1035.25 ± 0.34 | 1028.06 ± 0.33 | 1020.74 ± 0.31 | 38.6 ± 0.55 | 37.95 ± 0.54 | 37.21 ± 0.53 | 8.203 ± 0.1 | 5.636 ± 0.074 | 4.101 ± 0.055
x2 = 0.55 | 1036.33 ± 0.34 | 1029.16 ± 0.32 | 1021.87 ± 0.31 | – | – | – | 7.913 ± 0.099 | 5.467 ± 0.071 | 3.997 ± 0.053
x2 = 0.6 | 1037.32 ± 0.33 | 1030.12 ± 0.32 | 1022.84 ± 0.3 | 38.6 ± 0.55 | 37.9 ± 0.54 | 37.12 ± 0.53 | 7.628 ± 0.096 | 5.302 ± 0.069 | 3.897 ± 0.052
x2 = 0.65 | 1038.01 ± 0.33 | 1030.89 ± 0.31 | 1023.63 ± 0.3 | – | – | – | 7.351 ± 0.092 | 5.14 ± 0.067 | 3.797 ± 0.051
x2 = 0.7 | 1038.62 ± 0.32 | 1031.56 ± 0.31 | 1024.26 ± 0.29 | 38.6 ± 0.55 | 37.85 ± 0.54 | 37.02 ± 0.53 | 7.081 ± 0.089 | 4.979 ± 0.066 | 3.697 ± 0.049
x2 = 0.75 | 1039.06 ± 0.31 | 1031.9 ± 0.3 | 1024.63 ± 0.28 | – | – | – | 6.813 ± 0.086 | 4.821 ± 0.063 | 3.599 ± 0.048
x2 = 0.8 | 1039.43 ± 0.31 | 1032.23 ± 0.29 | 1024.86 ± 0.28 | 38.6 ± 0.55 | 37.8 ± 0.54 | 36.92 ± 0.52 | 6.554 ± 0.083 | 4.666 ± 0.061 | 3.5 ± 0.046
x2 = 0.85 | 1039.72 ± 0.3 | 1032.44 ± 0.29 | 1024.99 ± 0.27 | – | – | – | 6.296 ± 0.079 | 4.519 ± 0.059 | 3.402 ± 0.045
x2 = 0.9 | 1040 ± 0.3 | 1032.65 ± 0.28 | 1025.18 ± 0.27 | 38.6 ± 0.54 | 37.76 ± 0.53 | 36.84 ± 0.52 | 6.036 ± 0.076 | 4.374 ± 0.057 | 3.306 ± 0.044
x2 = 0.95 | 1040.59 ± 0.29 | 1033.06 ± 0.28 | 1025.43 ± 0.26 | – | – | – | 5.787 ± 0.074 | 4.232 ± 0.055 | 3.213 ± 0.042
